Measurements taken from patent EP0931077B1, “SUBSTITUTED BENZOCYCLOHEPTAPYRIDINE USEFUL AS INHIBITORS OF FARNESYL-PROTEIN TRANSFERASE” (SCHERING CORPORATION, priority 1996, dated 1998).

Biological target: farnesyl-protein transferase (Homo sapiens, UniProt P49354+P49356)
Experiment: FPT inhibition (in vitro farnesyl protein transferase inhibition)
Format: biochemical

SMILES	IC50	further results
O=C(NCc1cccnc1)[C@@H]1CCCN1C1c2ccc(Cl)cc2CCc2cc(Br)cnc21 (single isomer, unassigned) [Example 1 Isomer A, 1-(3-Brorno-8-chloro-6,11-dihydro-5H-benzo[5,6]cyclohepta[1,2-b]pyridine-11-yl)-N-(3-pyridinylmethyl)2-pyrrolidine carboxamide]	59 nM	
O=C(NCc1cccnc1)C1CCCN1C1c2ncc(Br)cc2CCc2cc(Cl)cc(Br)c21 (single isomer, unassigned) [Example 2 Isomer A, 1-(3,10-dibromo-8-chloro-6,11-dihydro-5H-benzo[5,6]cyclohepta[1,2-b]pyridine-11-yl)-N-(3-pyridinylmethyl)-2-pyrrolidine carboxamide]		inhibition at 0.3 µM (@ 0.3 µM): 15%
O=C(NCc1cccnc1)C1CCN1C1c2ccc(Cl)cc2CCc2cc(Br)cnc21 (single isomer, unassigned) [Example 3 Isomer A, 1-(3-bromo-8-chloro-6,11-dihydro-5H-benzo[5,6]cyclohepta[1,2-b]pyridine-11-yl)-N-(3-pyridinylmethyl)2-azetidine carboxamide]	1050 nM	
O=C(NCc1cccnc1)[C@@H]1CCCN1C1c2ccc(Cl)cc2CCc2cc(Br)cnc21 (single isomer, unassigned) [Example 1 Isomer B, 1-(3-Brorno-8-chloro-6,11-dihydro-5H-benzo[5,6]cyclohepta[1,2-b]pyridine-11-yl)-N-(3-pyridinylmethyl)2-pyrrolidine carboxamide]	140 nM	
O=C(NCc1cccnc1)C1CCCN1C1c2ncc(Br)cc2CCc2cc(Cl)cc(Br)c21 (single isomer, unassigned) [Example 2 Isomer B, 1-(3,10-dibromo-8-chloro-6,11-dihydro-5H-benzo[5,6]cyclohepta[1,2-b]pyridine-11-yl)-N-(3-pyridinylmethyl)-2-pyrrolidine carboxamide]	5.2 nM	
O=C(NCc1cccnc1)C1CCN1C1c2ccc(Cl)cc2CCc2cc(Br)cnc21 (single isomer, unassigned) [Example 3 Isomer B, 1-(3-bromo-8-chloro-6,11-dihydro-5H-benzo[5,6]cyclohepta[1,2-b]pyridine-11-yl)-N-(3-pyridinylmethyl)2-azetidine carboxamide]		inhibition at 0.1 µM (@0.1 µM): 17%
